The record followed here is patent US4444776A, “Dipyrido (4,3-B) (3,4-F) indoles, process for obtaining them, therapeutical use and pharmaceutical compositions” (priority 1977, dated 1984).

Like-named read-outs stand apart in the source and are kept apart here.

Data set [1] has as its system tumoral strain derived from the murine leukemia due to the C. FRIEND virus. Put plainly: Test 7: antitumoral activity in vitro on Friend leukemia tumoral strain. In kind it is cell-based. Conditions: HUM = 1. On the procedure:
Test 7: Study of the antitumoral activity in vitro
This activity was measured on a tumoral strain derived from the murine leukemia due to the C. FRIEND virus.
The tumoral cells multiply in suspension in a "RPMI 1640" medium (Catalogue of GIBCO Bio-cult. Ltd. Washington Road, Sandyford Industrial Estate, PAISLEY PA 3 4EP, Renfrewshire, Scotland) supplemented with 20% of embryonary calf serum, penicillin and streptomycine. The duplication time of these cells is 11 hours. The growth fraction is equal to 1 or very close to 1 (all the cells are in the cycle). The cultures are sub-culturedat time t=0 at the concentration of 2.10^5 cells per ml in Falcon dishes containing 4 ml of medium. After twenty four hours, the product to be tested was added, i.e. at a moment when the cultures are in exponential phase of growth. Twenty four hours after the addition of the product, the cells are counted and the percentage of living cells determined by an exclusion test using "trypan" blue.

Data set [2] deals with L1210 leukemia. The data set is described as follows: Test 16: structure-activity of R'1 substitution, L1210 (Table XII). In kind it is in vivo, mouse (C57B16xDBA/2)F1. Also on record: MST: unit not given here. On the procedure: Test 16: Relationship between structure and activity of various dipyrido indoles differing by the R'1 substitution.
L1210 leukemia has been maintained by weekly passages on (C57B16xDBA/2)F1 mice. On day 0, mice were inoculated by I.P. route with various numbers of L1210 ascitic tumor cells in volumes of 0.1 ml. Subsequently as indicated, drugs were administrated in Ca^++ and Mg^++ free PBS solutions (Gibco) or in Mac Coy's medium (Gibso or Microbiological Associates). […]

The test system of data set [3] is L 1210 leukemia. Put plainly: Test 1: antitumoral properties on L 1210 leukemia (Table I). In kind it is in vivo, mouse. As to conditions: for ILS % / Number of cells found / Number of cells killed / Surviving mice: 0.1 mg/mouse (5 mg/kg), J+1. On the procedure:
The lower animal antitumoral properties of the compounds according to the invention have been determined by their curative action on inoculated test L-1210 leukemia. [ZUBROD C. G., Proc. Nat. Acad. Sci. 1972, 69, 1042-1047 and SCHEPARTZ SA. SCREENING, 1971, CANCER Chemother. Rep. Part 3 vol.2 p.3].
This leukemia is maintained in ascitic form by passage (i.p. route) on CBDl (C57 B16×DBA/2)F1 mice. The preparation to be tested are injected by the intraperitoneal route at least one day after the inoculation of the cells (one injection only). The results are expressed in increased life span per cent (ILS %) according to KESSEL et al. Cancer Res. 1971, 31, 1883-1887) or in percentage of the number of cells killed by the product (the survival of the animals is proportional to the number of cells injected).
The following tests were made in groups of 10 mice, unless stipulated to the contrary.
Test 1: Study of the antitumoral properties of the compounds of the invention on L 1210 leukemia
The lower animal antitumoral properties of the compounds according to the invention were determined by their curative action on test inoculated L 1210 leukemia.
This leukemia was maintained on CBD 1 (C 57 B 16×DBA/2) F1 mice. The compounds to be tested were injected by the IP route one or more days after the inoculation of the cells (single injection). The results obtained, shown in table I hereinafter, are expressed in percentage of increase of life span (ILS %) and in percentage of the number of cells killed by the compound to be tested, the survival of the animals being proportional to the number of cells injected.
The percentage of the like span ILS % (Cancer. Res. 1971, 31, 1883-1887) is the following ratio: [formula] S^t =survival of the treated animals S^c =survival of the control animals

In data set [4] the test system is Moloney virus / viro-induced Moloney sarcoma. The data set is described as follows: Test 3: development of the viro-induced Moloney sarcoma. The data set is classed as in vivo, new-born mice. As to conditions: J+1. The text has this:
The study of the development of the MOLONEY viro-induced sarcoma (Nat. Cancer. Inst. Monograph 22, 139-142, 1966) has also made it possible to determine that the compounds according to the invention are antiviral and antitumoral agents in lower animals.
Test 3: Study of the development of the viro-induced Moloney sarcoma
The injection of Moloney virus [C. Jasmin et al. J. Nat. Cander Inst. 1974 53 469-474] by the intramuscular i.m. route into new-born mice led after 10 days to the formation of a sarcoma. The appearance of the tumour was proportional to the dose of virus injected. The viral inoculum was constituted by a tumor homogenate diluted to 1/250, this corresponding to 10 TID 50, i.e. to the dose of virus inducing the appearance of a tumour in 50% of the animals infected. At this dose, 80 to 100% of the animals developed a tumour, and 100% of the survivors became leukemic. The experiment thus consisted in noting the number of mice presenting tumours, the regression, or not, of these tumours and finally in sacrificing the surviving animals after 2 months and in noting the presence or absence of splenomegaly (evidence of a leukemia). The virus was inoculated into new-born mice of 3 to 5 days by the IM route, and the mice received the following day (J+1) or five hours after injection (JO+5 hours) the product to be tested by the IP route.

A short description of data set [5]: Test 4: toxicity on new-born mice, IP. In kind it is in vivo, mouse. As to conditions: mouse, in vivo, read-out: dead mice (converted). The text has this:
(§1) Test 4: Investigation of the toxicity
(§2) The toxic dose has been sought, on adult ([…]×DBA/2) Fl mice and on new-born mice, of the compounds of the invention by injection by the IP route. The results obtained are given hereinafter:
(§3) 2-On new-born mice (IP route)

Data set [6] concerns new-born mice. The data set is described as follows: Test 4: toxicity on new-born mice, IP. In kind it is in vivo, mouse.
Text: as §1, §2, §3

[7] abbreviates: 10^4 cells, 5 mg/kg, day +1, control MST 11.8.

On to `Cc1c2cc[n+](C)cc2c(C)c2c1[nH]c1cc[n+](C)cc12` [Example 2, 2,5,9,11-tetramethyl dipyrido [4,3-b][3,4-f] indolinium diacetate], for which the “Activity (ratio of the LD50 of HUM to the LD50 of the product tested)” value in data set [1] is 0.2. Besides, in data set [2] (10^4 cells, 20 mg/kg, day +4), the 60 days surv. is listed as 0, the ILS % is reported as 0.9%, the MST came to 11.3 and the Range of death was 10-17.
Regarding `Cc1c2ccnc(Cl)c2cc2c1[nH]c1ccncc12` [Example 6, 1-chloro-5-methyl-dipyrido [4,3-b][3,4-f] indole], the “Activity (ratio of the LD50 of HUM to the LD50 of the product tested)” value in data set [1] came to 0.3. The “toxicity in L 1210 test” value in data set [3] (0,1 mg/mouse) is “toxic”. Moreover, the “ILS % (difference with the controls)” value in data set [3] (0,1 mg/mouse, 10^4 and 10^3 cells) is on record as “no difference”.
In the case of `Cc1c2cc[n+](C)cc2c(C)c2c1[nH]c1ccc(O)cc12` [HUM, 2N--methyl-9-hydroxy-ellipticinium acetate, reference compound], in data set [4] (1 μg/mouse (0.5 mg/kg)), the animals survived turned out to be 90%, the mice presenting tumours is 30%, the mice with leukemia was found to be 33% and the tumours regressed came out at 90%. Besides, in data set [4] (5 μg/mouse (2.5 mg/kg)), the “animals presenting a tumour” value stood at 20%, the mice leukemic worked out at 10% and the tumour regression is 100%. For the same molecule, in data set [2] (10^3 cells, 5 mg/kg, day +1), the 60 days surv. came out at 3, the ILS % is recorded as 22.15%, the MST is 16.86 and the Range of death is 14-20. Besides, in data set [2] (setting [7]), the ILS % is 22.6%, the MST amounted to 14.9 and the Range of death is on record as 14-20. Further, the mortality in data set [5] (5 μg: 2.5 mg/kg) was 37.5%. For the same molecule, the mortality in data set [5] (10 μg: 5 mg/kg) is 37.5%. The appearance of mice result in data set [6] (5 μg: 2.5 mg/kg) is on record as “mice puny in appearance”. In addition, in data set [6] (10 μg: 5 mg/kg), the appearance of mice entry is “mice puny in appearance”. In addition, in data set [3] (10^3 cells), the ILS % is 22.15%, the “Number of cells found” value is given as 60, the “Number of cells killed” value amounted to 94% and the Surviving mice was 3/10. The molecule also displayed an ILS % in data set [3] (10^4 cells, IP) of 22.6%. Moreover, in data set [3] (10^4 cells), the “Number of cells found” value came out at 400, the “Number of cells killed” value is reported as 96% and the Surviving mice is listed as 1/10.
